The values below come from patent US20190031613A1, “COMPOUNDS AND METHODS FOR THEIR USE IN THE TREATMENT OF MALARIA” (University of South Florida, priority 2016, published 2019).

In data set [1] the test system is P. berghei-GFP parasites. Briefly: in vivo efficacy, modified Thompson test. Further details: species or system mice. How it is done:
Prodrug 6d was orally tested for in vivo efficacy at four doses (0.3 mg/kg, 1.0 mg/kg, 3.0 mg/kg, and 10 mg/kg) in 0.5% aqueous HEC solution.

Data set [2] in a line: in vivo pharmacokinetics in mice (plasma, LC/MS-MS). How it is done:
Plasma exposure of prodrug 6e and parent compound 1b was determined following a single oral administration at 10 mg/kg and 3 mg/kg doses in 0.5% aqueous HEC (FIG. 5b).
Compounds 1b and its prodrug 6e were administered as a single dose (10 mg/kg) in 0.5% HEC using freshly prepared solution. Parent compound 1d and its prodrugs 6c and 6d were administered as a single dose of 50 mg/kg using the same vehicle. The blood was collected in prepared 5 ml syringe containing heparin via cardiac puncture and put into 15 mL conical tube on ice. Five mice were used per one time point at 0.5 h, 1 h, 2 h, 4 h, 8 h and 24 h […] plus 2 mice as a control (not-treated). The blood was then centrifuged for 5 min at 4000 rpm and plasma supernatant collected while avoiding the whole blood pellet at the bottom of the tube. The plasma was stored at −80° C. until the day of LC/MS-MS analysis.
Compound concentrations were quantitated in plasma samples by LC/MS-MS using an Agilent triple quadrupole instrument. Chromatographic separation was conducted using an Agilent HPLC with Phenomenex Kinetex C18 column (2.6 μm particle size, 50-4.6 mm i.d.) equipped with a Phenomenex Security Guard column. The mobile phase (1.25 mL/min) consisted of 0.05% formic acid in water and 0.05% formic acid in acetonitrile mixed using a linear gradient over 7 minutes. […] Plasma samples and calibration standards were prepared by protein precipitation with acetonitrile (3 parts acetonitrile to 1 part plasma), followed by centrifugation and analysis of the supernatant. Sample concentrations were determined by comparison to calibration standards prepared in blank plasma and assayed using the same conditions. The analytical lower limit of quantitation in plasma was typically 0.75-1.00 nM and accuracy, precision and recovery were within acceptable limits.
The plasma was first warmed up on ice for about 1 hour. Then 50 μL of plasma sample was precipitated with 150 μL of cold acetonitrile with internal standard (133 nM) P4Q-95^20) following by centrifugation at 4,000 rpm for 5 min at 4° C. and transfer˜150 μL of the supernatant to LCMS vial. The samples were analyzed using Agilent triple quadruple instrument in triplicates (5 mice×3 injections for each time point). The chemical structure of P4Q-95^20 is shown below:
The calibration curve for 1d was linear in 1 to 500 nM range so samples were diluted if needed to fit this linearity and then concentration recalculated accordingly. Calibration curve was run each time following the actual PK measurements and used for that particular compound.

The nature of data set [3]: aqueous stability and parent compound release by quantitative HPLC. The conditions noted are these: for parent compound released: parent 1d.
Protocol: The stability of prodrugs in aqueous media and the release of parent compound was followed for 10 h using HPLC in triplicates.
Compound stability was assessed using quantitative HPLC in buffers at different pHs (2, 4, 7), in a simulated gastric fluid (SGF) and in a simulated intestinal fluid (SIF).
Data set [4] has as its system P. berghei. The following applies: cited from earlier work; for PO dose, single exposure radical cure: lowest single-cure dose as reported.
The mark [5] stands for this setting: single PO dose 10 mg/kg on day 3 PI, 0.5% aqueous HEC.
The mark [6] stands for this setting: oral dose 3.0 mg/kg, 0.5% aqueous HEC.
The mark [7] stands for this setting: oral dose 100 mg/kg, 0.5% aqueous HEC.
Setting [8] is: 10 mg/kg PO, three daily doses days 3-5 PI, 0.5% aqueous HEC.
Setting [9] is: 10 mg/kg PO, three daily doses days 3-5 PI, 0.5% aqueous HEC, untreated 13.
Setting [10] is: 50 mg/kg PO, three daily doses days 3-5 PI, 0.5% aqueous HEC.
Setting [11] is: oral dose 50.0 mg/kg, 0.5% aqueous HEC.
[12] abbreviates: single PO dose 0.01 mg/kg on day 3 PI.
The mark [13] stands for this setting: single PO dose 0.03 mg/kg on day 3 PI.
Where [14] appears, read: single PO dose 0.1 mg/kg on day 3 PI.
Setting [15] is: single PO dose 0.3 mg/kg on day 3 PI.
Where [16] appears, read: single PO dose 3 mg/kg on day 3 PI.
Setting [17] is: Table 3 control: 10 mg/kg PO, three daily doses days 3-5 PI.

Entries after “also recorded” stand apart in the source; their conditions may differ. Like-named read-outs stand apart in the source and are kept apart here.

On to `COc1cc2[nH]c(C)c(-c3ccc(Oc4ccc(OC(F)(F)F)cc4)cc3F)c(=O)c2cc1Cl` [1b, 6-chloro-3-(2-fluoro-4-(4-(tfifluoromethoxy)phenoxy)phenyl)-7-methoxy-2-methyl-4(1H)-quinolone, reference compound], for which, in data set [1] (setting [5]), the “Day of death (avg)” value was 13 and the “Suppression [%] day 6 PI” value is under 1%. In addition, the “in vivo activity” value in data set [1] (single dose of 10 mg/kg PO, 0.5% aqueous HEC) was “completely inactive”. In data set [2] (setting [6]), the “AUC0→24” value was found to be 228 µmol·min/L, the “CL” value is 26.6 mL·kg/min, the “Vd” value is reported as 19.6 L/kg and the “t1/2 apparent” value amounted to 8.5 h. For the same compound, in data set [2] (setting [6]), the “tmax” value came out at 4 h. In data set [2] (setting [7]), the “AUC0→24” value amounted to 580 µmol·min/L, the “CL” value turned out to be 34.9 mL·kg/min, the “Vd” value came to 44 L/kg and the “t1/2 apparent” value is on record as 14.5 h. Moreover, the “tmax” value in data set [2] (setting [7]) was found to be 8 h. In data set [2] (read-out: Cmax [μmol/L], oral dose 3.0 mg/kg, 0.5% aqueous HEC, parent in plasma), the Cmax was found to be 0.31 µmol/L. Also, the Cmax in data set [2] (read-out: Cmax [μmol/L], oral dose 100 mg/kg, 0.5% aqueous HEC) is 0.46 µmol/L. In data set [2] (single oral 3 mg/kg, 0.5% aqueous HEC), the Cmax came to 0.31 µmol/L.

Turning to `COc1cc2[nH]c(C)c(-c3ccc(C(F)(F)F)cc3)c(=O)c2cc1Cl` [1d, 6-chloro-7-methoxy-2-methyl-3-(4-(trifluoromethyl)phenyl)-4(1H)-quinolone, reference compound], in data set [1] (setting [8]), the “Suppression [%] day 6 PI” value was found to be 11%. Also, the “Day of death (avg)” value in data set [1] (setting [9]) amounted to 14. Further, in data set [1] (setting [10]), the “Day of death (avg)” value is 13 and the “Suppression [%] day 6 PI” value worked out at 10%. For the same compound, in data set [2] (mouse, in vivo, po, 50 mg/kg), the “AUC0→24” value came to 222 µmol·min/L, the “CL” value came out at 609.7 mL·kg/min, the Cmax was determined as 0.36 µmol/L and the “Vd” value was 377.7 L/kg. Also, in data set [2] (mouse, in vivo, po, 50 mg/kg), the “maximum plasma concentration of 1d” value stood at 0.365 µM, the “t1/2 apparent” value came to 7.15 h, the “time of maximum plasma concentration” value is 2 h and the “tmax” value was found to be 2 h.

In the case of `CNCCOC(=O)OCOc1c(-c2ccccc2C)c(C)nc2cc(OC)c(Cl)cc12.Cl` [6a, 6-Chloro-7-methoxy-2-methyl-3-(o-tolyl)-4-(((2-(methylammonio)ethoxycarbonyl)oxy)methoxy)quinoline, chloride salt], the “Suppression [%] day 6 PI” value in data set [1] (setting [8]) was 71%; in data set [1] (setting [10]), 46%. Further, the results for the “Day of death (avg)” value in data set [1] (setting [9]) and in data set [1] (setting [10]) were 16 and 13, respectively.

As to `CNCCOC(=O)OCOc1c(-c2ccc(C(F)(F)F)cc2)c(C)nc2cc(OC)c(Cl)cc12.Cl` [6c, 6-Chloro-7-methoxy-2-methyl-3-(4-(triftuoromethyl)phenyl)-4-(((2-(methylammonio)ethoxycarbonyl)oxy)methoxy)quinoline, chloride salt], the parent compound released in data set [3] (in 1 h at pH 7.0) is recorded as over 90%. Moreover, the parent compound released in data set [3] (in 10 h at pH 4.0) is over 25%. Moreover, in data set [1] (setting [8]), the “Suppression [%] day 6 PI” value was found to be 75%. In addition, the “Day of death (avg)” value in data set [1] (setting [9]) was 13. In data set [1] (setting [10]), the “Day of death (avg)” value came out at 16 and the “Suppression [%] day 6 PI” value is on record as 96%. Further, in data set [2] (setting [11]), the “AUC0→24” value was 8031 µmol·min/L, the “CL” value was determined as 11.6 mL·kg/min, the “Vd” value was found to be 7.8 L/kg and the “t1/2 apparent” value turned out to be 7.7 h. The “tmax” value in data set [2] (setting [11]) is 4 h. For the same compound, the Cmax in data set [2] (read-out: Cmax [μmol/L], oral dose 50.0 mg/kg, 0.5% aqueous HEC, parent in plasma) came out at 12 µmol/L. In data set [2] (single oral 50 mg/kg), the “AUC of 1d improved vs dosing of 1d” value is listed as 36 fold. Moreover, in data set [2] (single oral 50 mg/kg of prodrug, 0.5% aqueous HEC), the “maximum plasma concentration of 1d” value stood at 12 µM.

For `CNCCCOC(=O)OCOc1c(-c2ccc(C(F)(F)F)cc2)c(C)nc2cc(OC)c(Cl)cc12.Cl` [6d, 6-Chloro-7-methoxy-2-methyl-3-(4-(trifluoromethyl)phenyl)-4-(((3-(methylammonio)propyloxycarbonyl)oxy)methoxy)quinoline, chloride salt], the “aqueous stability” value in data set [3] (buffers pH 2, 4, 7, SGF, SIF) is listed as “stable at low pH values; also recorded: more stable than 6c”. Further, in data set [3] (in 5 h at pH 7.0), the parent compound released was over 55%. For the same compound, in data set [1] (setting [8]), the “Suppression [%] day 6 PI” value is 82%. Further, in data set [1] (setting [9]), the “Day of death (avg)” value is recorded as 13. Also, in data set [1] (setting [10]), the “Day of death (avg)” value amounted to 14 and the “Suppression [%] day 6 PI” value is reported as 96%. In addition, in data set [1] (10 and 50 mg/kg PO), the “life span of treated animals relative to untreated controls” value is given as “do not significantly extend the life span”. In addition, in data set [2] (mouse, in vivo, po, 50 mg/kg), the “AUC0→24” value amounted to 11664 µmol·min/L, the “AUC of 1d improved vs dosing of 1d” value amounted to 52 fold, the “CL” value is 7.8 mL·kg/min and the Cmax turned out to be 21.2 µmol/L. For the same compound, in data set [2] (mouse, in vivo, po, 50 mg/kg), the “Vd” value is 4.3 L/kg, the “t1/2 apparent” value is recorded as 6.4 h and the “tmax” value worked out at 1 h.

In general, half-life refers to the time in which the quantity being followed falls by half. Low values mean rapid decline, high ones slow decline. Consider `CNCCCOC(=O)OCOc1c(-c2ccc(Oc3ccc(OC(F)(F)F)cc3)cc2F)c(C)nc2cc(OC)c(Cl)cc12.Cl` [6e, 6-Chloro-7-methoxy-2-methyl-3-(2-fluoro-4-(4-(trifluoromethoxy)phenoxy)phenyl)-4-(((3-(methylammonio)propyloxycarbonyl)oxy)methoxy)quinoline, chloride salt], for which, in data set [1] (setting [12]), the “Day of death (avg)” value is on record as 13 and the “Suppression [%] day 6 PI” value is listed as under 1%. Moreover, in data set [1] (setting [13]), the “Day of death (avg)” value is given as 13 and the “Suppression [%] day 6 PI” value is listed as under 1%. In data set [1] (setting [14]), the “Day of death (avg)” value is on record as 13 and the “Suppression [%] day 6 PI” value was under 1%. For the same compound, in data set [1] (setting [15]), the “Day of death (avg)” value was found to be 13 and the “Suppression [%] day 6 PI” value came to 57%. For the same compound, the “average suppression of parasitemia on day 13” value in data set [1] (single PO dose 1 mg/kg) is 90%. Further, the “Suppression [%] day 6 PI” value in data set [1] (single PO dose 1 mg/kg on day 3 PI) worked out at 97%. The “Day of death (avg)” value in data set [1] (single PO dose 1 mg/kg on day 3 PI, 1 mg/kg) worked out at 21. For the same compound, in data set [1] (setting [16]), the “Day of death (avg)” value is on record as “curative” and the “Suppression [%] day 6 PI” value is over 99%. Besides, in data set [1] (setting [5]), the “Day of death (avg)” value is “curative” and the “Suppression [%] day 6 PI” value was over 99%. Also, in data set [1] (single oral dose, no advanced formulation), the “oral dose producing single dose cures” value came out at 3 mg/kg. Further, in data set [2] (mouse, in vivo, po), the “clearance” value is listed as “low clearance”, the half-life was at least 10 h, the “improvement in AUC vs parent” value amounted to 21 fold and the “improvement of Cmax vs parent” value was 18 fold. Moreover, in data set [2] (mouse, in vivo, po, 3 mg/kg), the “AUC0→24” value was 4818 µmol·min/L, the “Vd” value amounted to 0.8 L/kg and the “tmax” value was determined as 2 h. In data set [2] (mouse, in vivo, po, 10 mg/kg), the “AUC0→24” value turned out to be 10269 µmol·min/L, the “CL” value was 1.4 mL·kg/min, the Cmax was 9.1 µmol/L and the “Vd” value is given as 1.6 L/kg. Moreover, in data set [2] (mouse, in vivo, po, 10 mg/kg), the “t1/2 apparent” value is reported as 13.1 h and the “tmax” value came to 4 h.

On to `CCN(CC)Cc1cc(Nc2ccnc3cc(Cl)ccc23)ccc1O` [ADQ, reference compound], for which the “Suppression [%] day 6 PI” value in data set [1] (setting [8]) and in data set [1] (setting [17]) was over 99% in each case. Further, the “Day of death (avg)” value in data set [1] (setting [9]) and in data set [1] (setting [17]) was 21 each time.

For the compound `C[C@H]1Cc2c([nH]c3cc(Cl)c(F)cc23)[C@@]2(N1)C(=O)Nc1ccc(Cl)cc12` [KAE609], the “PO dose, single exposure radical cure” value in data set [4] is 100 mg/kg.

With `CS(=O)(=O)c1ccc(-c2cnc(N)c(-c3ccc(C(F)(F)F)nc3)c2)cc1` [MMV390048], in data set [4], the “PO dose, single exposure radical cure” value is given as 30 mg/kg.

As to `c1cc([C@H]2CC[C@]3(CC2)OO[C@]2(O3)C3CC4CC(C3)CC2C4)ccc1OCCN1CCOCC1` [OZ439], the “single oral dose that cures P. berghei-infected mice” value in data set [4] (clinical candidate, given in combination with ferroquine in trials) is on record as 20 mg/kg. In data set [4], the “PO dose, single exposure radical cure” value is listed as 20 mg/kg.
